Laboratory results from US20070122471A1, “Method of improving suitability for granulation” (Takeda Pharmaceutical Company Limited, priority 2003, published 2007).

Assay: Wettability to binder: contact angle of binder liquid on molded product
Assay type: physicochemical
Details: for Contact angle with respect to molded product: immediately after dropping about 10 μL
Description: The bulk molded product of Compound X used in Example 1, and Compound X, lactose and crystalline cellulose in Table 1 (this mixture being referred to as a granulation component) were examined on the effect of the surfactant on the wettability to a binder (10% PVP) solution for the molded product. As a binding liquid, a solution of a binder alone (A), a solution of binder+a 1% polysorbate 80 (B), and a solution of a binder+1% sodium lauryl sulfate (C) were used, and contact angle thereof were measured by using the following method.
About 300 mg of the bulk or the granulation component was weighed, and compression molded using a plain mortar and pestle of 10.0 mmφ by an autograph (manufactured by Shimadzu Co.) under the conditions of a tableting pressure of 10 kN/pestle and a tableting speed of 10 mm/min, thus to obtain a bulk molded product or a molded product of the granulation components. Onto the flat portion of each of the molded products, about 10 μL of the above-described binder liquid was dropped using a Microsyringe (manufactured by ITO SEISAKUSHO CO., LTD.), and the solid and liquid interface immediately after dropping was photographed by a digital microscope (Keyence). After photographing, using an accompanying software, the angle between the liquid surface and the solid surface was measured and referred to as an […].

COc1cccc([C@H]2O[C@H](CC(=O)Nc3cccc(CCC(=O)O)c3)C(=O)N(CC(C)(C)CO)c3ccc(Cl)cc32)c1OC [Compound X, 3-[3-[[(3R,5S)-7-chloro-5-(2,3-dimethoxyphenyl)-1-(3-hydroxy-2,2-dimethylpropyl)-2-oxo-1,2,3,5-tetrahydro-4,1-benzoxazepine-3-yl]acetyl]aminophenyl]propionic acid]
Contact angle with respect to molded product (binder liquid (A): binder (10% PVP) alone): 56 °
Contact angle with respect to molded product (binder liquid (B): binder (10% PVP) + 1% polysorbate 80): 33 °
Contact angle with respect to molded product (binder liquid (C): binder (10% PVP) + 1% sodium lauryl sulfate): 28 °
Wettability to the binder liquid (surfactant incorporated into the binder liquid): remarkably improved
